Test results: patent US11613547B2 (priority 2019, dated 2023)
Several values for one entry are separate records, joined by “and”; a condition that tells them apart may be missing. Identical values can stand only once. Like-named read-outs stand apart in the source and are kept apart here.

Columns and labels:
mMOR [1] = molecular target: T1, mMOR (Mus musculus, UniProt P42866); assay: Radioligand competition binding ([125I]IBNtxA), CHO membranes, mMOR; details: vs 125IBNtxA (0.1 nM), mean ± SEM
T1 construct: expressed in transfected cells

[2] = molecular target: T2, rat kappa opioid receptor (rKOR) (Rattus norvegicus, UniProt P34975); assay: BRET assay, G-protein activation, rKOR; format: cell-based; details: for Emax: read-out: Gi Emax rKOR
T2 construct: expressed in transfected cells; host or cells: HEK-293T, transient (PEI), with BRET sensor cDNAs

mKOR [3] = molecular target: T3, mKOR (Mus musculus, UniProt P33534); assay: Radioligand competition binding ([125I]IBNtxA), CHO membranes, mKOR; details: vs 125IBNtxA (0.1 nM), mean ± SEM
T3 construct: expressed in transfected cells

mKOR [4] = molecular target: T3, mKOR; assay: [35S]GTPγS functional assay, mKOR; format: biochemical
[5] = molecular target: T4, mouse mu opioid receptor (mMOR) (Mus musculus, UniProt P42866); assay: cell-based; format: cell-based
T4 construct: expressed in transfected cells; host or cells: HEK-293T, transient (PEI), with BRET sensor cDNAs

hDOR [6] = molecular target: T5, hDOR (Homo sapiens, UniProt P41143); assay: Tango β-arrestin recruitment assay, hDOR; format: cell-based; set-up: expressed in transfected cells; host or cells: HTLA cells expressing TEV fused-beta-Arrestin2; details: for Emax: read-out: Arrestin recruitment Emax % ± SEM
[7] = molecular target: T6, mouse delta opioid receptor (mDOR) (Mus musculus, UniProt P32300); assay: BRET assay, G-protein activation, mDOR; format: cell-based; details: for Emax: read-out: G-Protein activation Emax % ± SEM
T6 construct: expressed in transfected cells; host or cells: HEK-293T, transient (PEI), with BRET sensor cDNAs

[8] = molecular target: T4, mouse mu opioid receptor (mMOR); assay: cell-based; format: cell-based; details: for Emax: read-out: Gi Emax mMOR
mMOR [9] = molecular target: T1, mMOR; assay: [35S]GTPγS functional assay, mMOR; format: biochemical
hDOR [10] = molecular target: T5, hDOR; assay: cAMP inhibition assay, hDOR; format: cell-based; set-up: expressed in transfected cells; details: for Emax: read-out: cAMP inhibition Emax % ± SEM
hMOR [11] = molecular target: T7, hMOR (Homo sapiens, UniProt P35372); assay: cell-based; format: cell-based; details: for Emax: HEK-293T, read-out: Gi Emax hMOR
T7 construct: expressed in transfected cells; host or cells: HEK 293T (ATCC CRL-11268), transient

mDOR [12] = molecular target: T8, mDOR (Mus musculus, UniProt P32300); assay: [35S]GTPγS functional assay, mDOR; format: biochemical
T8 construct: expressed in transfected cells

[13] = molecular target: T2, rat kappa opioid receptor (rKOR); assay: BRET assay, arrestin recruitment, rKOR; format: cell-based
hKOR [14] = molecular target: T9, hKOR (Homo sapiens, UniProt P41145); assay: cAMP inhibition assay (GloSensor, HEK 293T), hKOR; format: cell-based; details: for Emax: HEK-293T, read-out: Gi Emax hKOR; for Bias factor toward G protein, hKOR: cAMP inhibition vs Tango, against U50,488H as control
T9 construct: expressed in transfected cells; host or cells: HEK 293T (ATCC CRL-11268), transient

hKOR [15] = molecular target: T9, hKOR; assay: Tango β-arrestin recruitment assay, hKOR; format: cell-based
mDOR [16] = molecular target: T8, mDOR; assay: Radioligand competition binding ([125I]IBNtxA), CHO membranes, mDOR; details: vs 125IBNtxA (0.1 nM), CHO membranes, mean ± SEM
hMOR [17] = molecular target: T7, hMOR; assay: Tango β-arrestin recruitment assay, hMOR; format: cell-based
Y312W-hKOR [18] = molecular target: T10, Y312W-hKOR (Homo sapiens, UniProt P41145, Y312W); assay: cAMP inhibition assay, Y312W-hKOR mutant; format: cell-based; set-up: expressed in transfected cells; host or cells: HEK 293T (inferred from the general cAMP method)
Y312W-hKOR [19] = molecular target: T10, Y312W-hKOR; assay: Tango-arrestin recruitment assay, Y312W-hKOR mutant; format: cell-based; set-up: expressed in transfected cells
[20] = molecular target: T6, mouse delta opioid receptor (mDOR); assay: BRET assay, arrestin recruitment, mDOR; format: cell-based

Row | SMILES | Emax [2] | Emax (mKOR [4]) | EC50 (hDOR [6]; hDOR, Tango) | Emax (hDOR [6]) | Emax [7] | Emax [8] | Emax (mMOR [9]) | EC50 (hDOR [10]; hDOR) | Emax (hDOR [10]) | Bias factor toward G protein, hMOR (hMOR [11]) | Emax (hMOR [11]) | Emax (mDOR [12]) | Emax (hKOR [14]) | Bias factor toward G protein, hKOR (hKOR [14]) | Emax (hKOR [15]) | EC50 (hKOR [15]; Tango, WT-hKOR) | Emax (hMOR [17]) | EC50 (hMOR [17]; Tango) | further results
1 | CO[C@@]12CC[C@@H](NC(=O)c3cccc(I)c3)C3Oc4c(O)ccc5c4[C@@]31CCN(CC1CC1)C2C5 (stereo partly drawn) [MP1305, N-((4aS,7R,12bS)-3-(Cyclopropylmethyl)-9-hydroxy-4a-methoxy-2,3,4,4a,5,6,7,7a-octahydro-1H-4,12-methanobenzofuro[3,2-e]isoquinolin-7-yl)-3-iodobenzamide] | 35 ± 3% | 42.2 ± 5.3% | 228 nM | 89 ± 2.8% | 105 ± 5.9% | 72 ± 2% | 81.2 ± 16% | 74.2 nM | 71 ± 2.4% | 11 | 69 ± 1.8% | 22 ± 0.9% | 102 ± 1.2% | 4 | 75 ± 1% | 25.7 nM | 21 ± 3% | 16.4 nM | Ki (mMOR [1]): 0.25 ± 0.02 nM; Gi pEC50±SEM rKOR ([2]; BRET): 8.3±0.32; Ki (mKOR [3]): 2.5 ± 0.3 nM; EC50 (mKOR [4]; [35S]GTPγS, nM ± SEM): 7.4 ± 1.8 nM; arrestin recruitment at mMOR [5]: no arrestin recruitment was observed; Arrestin recruitment pEC50 ± SEM (hDOR [6]; hDOR, Tango): 6.6 ± 0.06; EC50 ([7]; mDOR, BRET): 40.4 nM; G-Protein activation pEC50 ± SEM ([7]; mDOR, BRET): 7.4 ± 0.20; Gi pEC50±SEM mMOR [8]: 9.1±0.12; EC50 ([8]; read-out: Gi EC50 mMOR): 0.74 nM; EC50 (mMOR [9]; [35S]GTPγS, nM ± SEM): 0.7 ± 0.1 nM; cAMP inhibition pEC50 ± SEM (hDOR [10]; hDOR): 7.1 ± 0.08; Gi pEC50±SEM hMOR (hMOR [11]): 9.9±0.12; EC50 (hMOR [11]; read-out: Gi EC50 hMOR): 0.12 nM; EC50 (mDOR [12]; [35S]GTPγS, nM ± SEM): 31.7 ± 3.6 nM; arrestin recruitment at rKOR ([13]; BRET): no arrestin recruitment was observed; Gi pEC50±SEM hKOR (hKOR [14]; cAMP inhibition): 9.14±0.05; Arrestin pEC50±SEM hKOR (hKOR [15]; Tango, WT-hKOR): 7.6±0.04; Ki (mDOR [16]): 11.7 ± 1.4 nM; Arrestin pEC50±SEM hMOR (hMOR [17]; Tango): 7.8±0.3
2 | O=C(N[C@@H]1CCC2C3Cc4ccc(O)c5c4C2(CCN3CC2CC2)C1O5)c1cccc(I)c1 (stereo partly drawn) [MP1202, N-((7R,1265)-3-(Cyclopropylmethyl)-9-hydroxy-2,3,4,4a,5,6,7,7a-octahydro-1H-4,12-methanobenzofuro[3,2-e]isoquinolin-7-yl)-3-iodobenzamide] | 104 ± 2% | 94 ± 5% | 18.1 nM | 26 ± 3.1% | 103 ± 4.6% | 61 ± 1.5% | 68 ± 1% | 8.18 nM | 99 ± 2.2% | 31 | 92 ± 1.4% | 71 ± 2% | 110 ± 1% | 0.6 | 101 ± 1% | 0.0457 nM | 53 ± 2% | 26.8 nM | Bias factor toward G-protein, rKOR ([2]; BRET assays, against U50,488H as control): 0.39 and 0.4; EC50 ([2]; BRET, read-out: Gi EC50 rKOR): 0.134 nM; Bias factor toward G-protein, Y312W-hKOR (Y312W-hKOR [18]; cAMP inhibition vs Tango, against U50,488H as control): 33 and 34; EC50 (Y312W-hKOR [18]; cAMP inhibition, read-out: Gi pEC50±SEM Y312W-hKOR (converted)): 0.0204 nM; Emax (Y312W-hKOR [18]; read-out: Gi Emax Y312W-hKOR): 101 ± 1.5%; Emax (Y312W-hKOR [19]): 55 ± 2.6%; EC50 (Y312W-hKOR [19]; Tango): 3.4 nM; arrestin recruitment at Y312W-hKOR (Y312W-hKOR [19]; Tango, compared with wild-type KOR): reduced arrestin recruitment; Emax ([5]; read-out: Arrestin Emax mMOR): 53 ± 1.6%; Bias factor toward G-protein, mMOR [8]: 58; EC50 (hMOR [11]): 0.077 nM; Emax [13]: 77 ± 5%; EC50 ([13]; BRET): 1.44 nM; EC50 ([20]; mDOR, BRET): 525 nM; Emax ([20]; read-out: Arrestin recruitment Emax % ± SEM): 26 ± 2.3%; EC50 (hKOR [14]; cAMP inhibition, read-out: Gi EC50 hKOR): 0.0016 nM
